Data taken from ChEMBL document CHEMBL5260828, “Amphiphilic glycoconjugates as potential anti-cancer chemotherapeutics” (Eur J Med Chem, 2018).
Values after ≈ are worked out from the molar mass of the structure shown. Blank lines part the entries; values can stand above or below the compound they belong to.

Experiments:
[1] = test system: A549; assay: Cytotoxicity against human A549 cells incubated for 72 hrs by MTT assay; format: functional, cell-based; details: A549, 72 h
[2] = test system: K562; assay: Cytotoxicity against human K562 cells by colorimetric assay; format: functional, cell-based
[3] = test system: K562; assay: Cytotoxicity against human K562 cells; format: functional, cell-based
[4] = test system: A549; assay: Cytotoxicity against human A549 cells incubated for 48 hrs by MTT assay; format: functional, cell-based; details: A549, 48 h
[5] = test system: MCF7; assay: Cytotoxicity against human MCF7 cells incubated for 48 hrs by MTT assay; format: functional, cell-based; details: MCF7, 48 h
[6] = test system: SGC-7901; assay: Cytotoxicity against human SGC-7901 cells incubated for 48 hrs by MTT assay; format: functional, cell-based; details: SGC-7901, 48 h
[7] = test system: HepG2; assay: Cytotoxicity against human HepG2 cells incubated for 48 hrs by MTT assay; format: functional, cell-based; details: HepG2, 48 h
[8] = test system: HeLa; assay: Cytotoxicity against human HeLa cells incubated for 48 hrs by MTT assay; format: functional, cell-based
[9] = target: Fatty acid synthase (Gallus gallus, UniProt P12276); assay: Inhibition of Fatty acid synthase in chicken liver using [3H]-acetyl CoA as substrate preincubated for 30 mins followed by substrate addition and measured after 10 mins in presence of NADPH by scintillation counting analysis; format: tissue-based
Chain of Fatty acid synthase (P12276 whole entry): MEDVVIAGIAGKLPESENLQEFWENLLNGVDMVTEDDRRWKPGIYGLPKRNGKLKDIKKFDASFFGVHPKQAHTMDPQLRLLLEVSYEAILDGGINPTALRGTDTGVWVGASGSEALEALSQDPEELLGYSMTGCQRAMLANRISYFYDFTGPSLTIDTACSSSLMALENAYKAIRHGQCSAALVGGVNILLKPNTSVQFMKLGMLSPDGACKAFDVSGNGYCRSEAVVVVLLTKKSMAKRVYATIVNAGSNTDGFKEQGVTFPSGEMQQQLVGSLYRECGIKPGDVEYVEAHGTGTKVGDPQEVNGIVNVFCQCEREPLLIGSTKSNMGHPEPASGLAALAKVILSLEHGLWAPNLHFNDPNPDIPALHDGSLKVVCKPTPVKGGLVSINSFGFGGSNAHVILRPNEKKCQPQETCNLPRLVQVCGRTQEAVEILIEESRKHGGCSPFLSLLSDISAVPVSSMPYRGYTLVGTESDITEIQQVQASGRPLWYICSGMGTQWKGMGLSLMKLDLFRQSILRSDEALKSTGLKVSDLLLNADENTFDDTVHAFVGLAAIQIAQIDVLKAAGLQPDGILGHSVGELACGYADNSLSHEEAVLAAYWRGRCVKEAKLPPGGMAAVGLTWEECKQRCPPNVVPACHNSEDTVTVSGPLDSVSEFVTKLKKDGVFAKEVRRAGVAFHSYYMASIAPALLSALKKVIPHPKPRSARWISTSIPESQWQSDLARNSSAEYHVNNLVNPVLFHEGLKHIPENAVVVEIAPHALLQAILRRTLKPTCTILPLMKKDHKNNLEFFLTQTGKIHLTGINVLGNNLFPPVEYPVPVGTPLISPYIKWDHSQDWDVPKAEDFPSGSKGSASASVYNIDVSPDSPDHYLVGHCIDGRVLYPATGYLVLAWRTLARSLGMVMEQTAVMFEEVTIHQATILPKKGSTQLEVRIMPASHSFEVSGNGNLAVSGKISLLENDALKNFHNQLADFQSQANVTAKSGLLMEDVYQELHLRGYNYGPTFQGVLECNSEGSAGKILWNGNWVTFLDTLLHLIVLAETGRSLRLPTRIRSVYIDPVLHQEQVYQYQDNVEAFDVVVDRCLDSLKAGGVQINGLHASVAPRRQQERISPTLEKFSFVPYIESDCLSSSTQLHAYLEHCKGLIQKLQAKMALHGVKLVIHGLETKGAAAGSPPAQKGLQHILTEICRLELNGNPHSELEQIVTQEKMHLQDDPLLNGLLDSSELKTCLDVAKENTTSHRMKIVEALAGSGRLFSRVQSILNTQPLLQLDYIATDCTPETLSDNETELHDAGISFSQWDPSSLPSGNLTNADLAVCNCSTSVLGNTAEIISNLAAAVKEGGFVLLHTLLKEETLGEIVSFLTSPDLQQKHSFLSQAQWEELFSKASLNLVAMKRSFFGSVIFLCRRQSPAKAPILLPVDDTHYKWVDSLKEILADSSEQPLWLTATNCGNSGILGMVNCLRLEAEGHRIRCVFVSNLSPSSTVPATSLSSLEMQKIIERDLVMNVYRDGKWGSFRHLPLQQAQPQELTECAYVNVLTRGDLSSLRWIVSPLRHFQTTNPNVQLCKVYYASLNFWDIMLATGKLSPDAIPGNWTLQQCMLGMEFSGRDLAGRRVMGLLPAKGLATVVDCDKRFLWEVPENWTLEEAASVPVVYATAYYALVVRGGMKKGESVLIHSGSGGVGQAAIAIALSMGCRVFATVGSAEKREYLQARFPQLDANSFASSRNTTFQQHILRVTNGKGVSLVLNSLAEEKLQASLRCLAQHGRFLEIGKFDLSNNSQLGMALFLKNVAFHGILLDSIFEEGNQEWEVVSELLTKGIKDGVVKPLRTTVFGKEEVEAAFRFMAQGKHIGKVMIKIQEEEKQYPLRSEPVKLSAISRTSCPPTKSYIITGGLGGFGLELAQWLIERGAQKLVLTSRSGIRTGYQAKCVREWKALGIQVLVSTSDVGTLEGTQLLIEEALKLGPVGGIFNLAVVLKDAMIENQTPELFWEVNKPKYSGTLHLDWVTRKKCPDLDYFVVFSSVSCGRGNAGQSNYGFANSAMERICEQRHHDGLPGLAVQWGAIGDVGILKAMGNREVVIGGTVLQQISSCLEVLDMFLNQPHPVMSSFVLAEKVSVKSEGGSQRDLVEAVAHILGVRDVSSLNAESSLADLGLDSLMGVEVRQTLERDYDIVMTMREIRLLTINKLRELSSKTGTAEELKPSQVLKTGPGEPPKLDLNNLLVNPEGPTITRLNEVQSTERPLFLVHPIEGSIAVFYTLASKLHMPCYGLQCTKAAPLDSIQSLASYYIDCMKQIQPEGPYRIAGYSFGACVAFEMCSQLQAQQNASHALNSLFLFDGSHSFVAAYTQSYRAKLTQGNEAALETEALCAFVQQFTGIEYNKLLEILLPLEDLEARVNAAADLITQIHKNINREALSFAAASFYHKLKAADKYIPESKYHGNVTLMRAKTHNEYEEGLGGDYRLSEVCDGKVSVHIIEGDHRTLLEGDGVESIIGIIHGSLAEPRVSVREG

[10] = test system: MIA PaCa-2; assay: Cytotoxicity against human MIA PaCa-2 cells assessed as reduction in cell viability incubated for 48 hrs by MTS assay; format: functional, cell-based; details: MIA PaCa-2, time 48 hrs
[11] = test system: DU-145; assay: Cytotoxicity against human DU-145 cells assessed as reduction in cell viability incubated for 48 hrs by MTS assay; format: functional, cell-based; details: DU-145, time 48 hrs
[12] = test system: PC-3; assay: Cytotoxicity against human PC-3 cells assessed as reduction in cell viability incubated for 48 hrs by MTS assay; format: functional, cell-based; details: PC-3, time 48 hrs
[13] = test system: JIMT-1; assay: Cytotoxicity against human JIMT-1 cells assessed as reduction in cell viability incubated for 48 hrs by MTS assay; format: functional, cell-based; details: JIMT-1, time 48 hrs
[14] = test system: BT-474; assay: Cytotoxicity against human BT-474 cells assessed as reduction in cell viability incubated for 48 hrs by MTS assay; format: functional, cell-based; details: BT-474, time 48 hrs

SMILES: CCCCCCCCCCCCCC(=O)OCc1cn(C[C@H]2O[C@H](OC)[C@H](O)[C@@H](O)[C@@H]2O)nn1
IC50 [1]: 21 µM

SMILES: CCCCCCCCCCCCCCCCCCOCC(CO[C@H]1O[C@H](CO)[C@@H](O)[C@H](O)[C@@H]1O)OCC (stereo not given in full)
IC50 [2]: 3 µM

SMILES: CCCCCCCCCCCC(=O)OCc1cn(C[C@H]2O[C@H](OC)[C@H](O)[C@@H](O)[C@H]2O)nn1
IC50 [1]: 21 µM

SMILES: CC(=O)OC[C@H]1O[C@@H](Oc2cc(C)c(O)cc2C/C=C(\C)CC/C=C(\C)C[C@@H](O)C=C(C)C)[C@H](O)[C@@H](OC(C)=O)[C@H]1OC(C)=O
IC50 [3]: 2.6 µg/mL (≈ 4.11 µM)

SMILES: CCCCCCCC(=O)O[C@H]1[C@H](O[C@@H]2[C@H]3OC(=O)CCCCCCCCC[C@@H](CCCCC)O[C@@H]4O[C@H](CO)[C@@H](O)[C@H](O)[C@H]4O[C@H](O[C@H]2C)[C@@H]3O)O[C@@H](C)[C@H](O[C@@H]2O[C@@H](C)[C@H](OC(=O)[C@@H](C)CC)[C@@H](OC(=O)/C=C/c3ccccc3)[C@H]2O)[C@H]1O[C@@H]1O[C@@H](C)[C@H](O)[C@@H](O)[C@H]1O
IC50 [4]: 4.28 µM
IC50 [5]: 4.28 µM
IC50 [6]: 4.28 µM
IC50 [7]: 4.28 µM
IC50 [8]: 4.28 µM

IC50 [9]: 15.6 µM
SMILES: CCCCCCCCCCCCCCCCCCC/C=C/C(=O)OC[C@H](CO[C@@H]1O[C@H](CO[C@H]2O[C@H](CO)[C@H](O)[C@H](O)[C@H]2O)[C@H](O)[C@H](O)[C@H]1O)OC(=O)CCCCCCCCCCCCCCCCCCC

SMILES: CCCCCCCCCC(=O)O[C@H]1[C@H](O[C@@H]2[C@H]3OC(=O)CCCCCCCCC[C@@H](CCCCC)O[C@@H]4O[C@H](CO)[C@@H](O)[C@H](O)[C@H]4O[C@H](O[C@H]2C)[C@@H]3O)O[C@@H](C)[C@H](O[C@@H]2O[C@@H](C)[C@H](O/C(O)=C(/C)CC)[C@@H](O)[C@H]2OC(=O)/C=C/c2ccccc2)[C@H]1O[C@@H]1O[C@@H](C)[C@H](O)[C@@H](O)[C@H]1O
IC50 [4]: 4.28 µM
IC50 [5]: 4.28 µM
IC50 [6]: 4.28 µM
IC50 [7]: 4.28 µM
IC50 [8]: 4.28 µM

SMILES: CCCCCCCCCCCCCCCCOC[C@H](CO[C@@H]1O[C@@H](CO)[C@H](O)[C@@H](O)[C@@H]1O)OC
CC50 [10]: 7.5 µM
CC50 [11]: 12.5 µM
CC50 [12]: 12.5 µM
CC50 [13]: 6.5 µM
CC50 [14]: 11 µM

SMILES: CCCCCCCCCC(=O)O[C@H]1[C@H](O[C@@H]2[C@H]3OC(=O)CCCCCCCCC[C@@H](CCCCC)O[C@@H]4O[C@H](CO)[C@@H](O)[C@H](O)[C@H]4O[C@H](O[C@H]2C)[C@@H]3O)O[C@@H](C)[C@H](O[C@@H]2O[C@@H](C)[C@H](OC(=O)[C@@H](C)CC)[C@@H](O)[C@H]2O)[C@H]1O[C@@H]1O[C@@H](C)[C@H](O)[C@@H](O)[C@H]1O
IC50 [4]: 4.28 µM
IC50 [5]: 4.28 µM
IC50 [6]: 4.28 µM
IC50 [7]: 4.28 µM
IC50 [8]: 4.28 µM

SMILES: CC(=O)OC[C@H]1O[C@@H](Oc2cc(C)c(O)cc2C/C=C(\C)CC/C=C(\C)CCC=C(C)C)[C@H](O)[C@@H](OC(C)=O)[C@H]1OC(C)=O
IC50 [3]: 5.2 µg/mL (≈ 8.43 µM)

SMILES: CCCCCCCCCC(=O)O[C@H]1[C@H](O[C@@H]2[C@H]3OC(=O)CCCCCCCCC[C@@H](CCCCC)O[C@@H]4O[C@H](CO)[C@@H](O)[C@H](O)[C@H]4O[C@H](O[C@H]2C)[C@@H]3O)O[C@@H](C)[C@H](O[C@@H]2O[C@@H](C)[C@H](OC(=O)[C@@H](C)CC)[C@@H](OC(=O)/C=C/c3ccccc3)[C@H]2O)[C@H]1O[C@@H]1O[C@@H](C)[C@H](O)[C@@H](O)[C@H]1O
IC50 [4]: 4.28 µM
IC50 [5]: 4.28 µM
IC50 [6]: 4.28 µM
IC50 [7]: 4.28 µM
IC50 [8]: 4.28 µM

SMILES: CCCCCCCCCCCC(=O)OCc1cn(C[C@H]2O[C@H](OC)[C@H](O)[C@@H](O)[C@@H]2O)nn1
IC50 [1]: 21 µM

SMILES: CCCCCCCCCCCCCCCCCCOCC(COC(=O)NCCCO[C@H]1O[C@H](CO)[C@@H](O)[C@H](O)[C@@H]1O)OCC (stereo not given in full)
IC50 [2]: 18 µM

SMILES: CC(=O)OC[C@H]1O[C@@H](Oc2cc(C)c(O)cc2C/C=C(\C)CC/C=C(\C)CC(=O)CC(C)C)[C@H](O)[C@@H](OC(C)=O)[C@H]1OC(C)=O
IC50 [3]: 8.1 µg/mL (≈ 12.8 µM)

SMILES: CCCCCCCCCCCCCCCCCCOCC(CO[C@@H]1O[C@H](CO)[C@@H](O[C@@H]2O[C@H](CO)[C@H](O)[C@H](O)[C@H]2O)[C@H](O)[C@H]1O)OCC (stereo not given in full)
IC50 [2]: 18 µM
